Test results from patent US20230265151A1, “GIP/GLP1 CO-AGONIST COMPOUNDS” (priority 2020, published 2023).
Read-outs that look alike come from different tables or passages of the source. *1 amine or outer side, *2 acyl side, *3 side chain or, on linkers, in order; H or OH if unused. Where a SMILES comes first, the peptide text is derived from it. Side-chain parts run from the residue outwards. [ ]: non-standard residue; d: D form. The star is where a group is joined. Decanoyl(10-(4-HOOC-PhO)) = O=C(O)c1ccc(OCCCCCCCCCC(=O)*)cc1; αMePhe(2-F) = C[C@](N)(Cc1ccccc1F)C(=O)O; γGlu = O=C(O)[C@H](CCC(=O)[*:2])N[*:1]; αMeY = C[C@](N)(Cc1ccc(O)cc1)C(=O)O; αMeL = CC(C)C[C@](C)(N)C(=O)O; Orn = NCCC[C@H](N)C(=O)O; AEEA = NCCOCCOCC(=O)O; Aib = CC(C)(N)C(=O)O

What was measured:
Type in all cases: cell-based
[1] = target: T1, hGIPR (Homo sapiens, UniProt P48546); assay: Functional cAMP formation (HTRF) in HEK-293 clonal cells expressing hGIPR, 0.1% bovine casein, without or with 1.0% human serum albumin
T1 construct: expressed in transfected cells
T1 sequence (P48546 22-466): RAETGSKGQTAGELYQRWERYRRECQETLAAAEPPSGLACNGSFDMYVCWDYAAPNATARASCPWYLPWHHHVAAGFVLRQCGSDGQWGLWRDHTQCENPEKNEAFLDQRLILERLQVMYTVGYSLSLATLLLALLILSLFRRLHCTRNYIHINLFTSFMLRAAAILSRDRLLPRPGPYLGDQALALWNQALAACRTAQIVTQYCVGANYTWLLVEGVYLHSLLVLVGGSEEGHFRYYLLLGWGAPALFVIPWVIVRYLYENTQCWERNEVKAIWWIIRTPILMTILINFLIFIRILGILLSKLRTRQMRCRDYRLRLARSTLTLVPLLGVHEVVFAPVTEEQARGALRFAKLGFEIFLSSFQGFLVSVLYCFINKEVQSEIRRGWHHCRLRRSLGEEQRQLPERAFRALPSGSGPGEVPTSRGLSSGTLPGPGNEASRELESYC
Procedure, shortened: (§1)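 Cells were stimulated with peptide for 30 min at 37° C, then lysed in buffer carrying cAMP-d2 and anti-cAMP Eu3+-cryptate for a competitive HTRF read after at least 60 min at room temperature. The 665/620 nm ratio was converted to nM cAMP against a standard curve.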

[2] = target: T2, hGCGR (Homo sapiens, UniProt P47871); assay: Functional cAMP formation (HTRF) in HEK-293 clonal cells expressing hGCGR, 0.1% bovine casein, without or with 1.0% human serum albumin
T2 construct: expressed in transfected cells
T2 sequence (P47871 26-477): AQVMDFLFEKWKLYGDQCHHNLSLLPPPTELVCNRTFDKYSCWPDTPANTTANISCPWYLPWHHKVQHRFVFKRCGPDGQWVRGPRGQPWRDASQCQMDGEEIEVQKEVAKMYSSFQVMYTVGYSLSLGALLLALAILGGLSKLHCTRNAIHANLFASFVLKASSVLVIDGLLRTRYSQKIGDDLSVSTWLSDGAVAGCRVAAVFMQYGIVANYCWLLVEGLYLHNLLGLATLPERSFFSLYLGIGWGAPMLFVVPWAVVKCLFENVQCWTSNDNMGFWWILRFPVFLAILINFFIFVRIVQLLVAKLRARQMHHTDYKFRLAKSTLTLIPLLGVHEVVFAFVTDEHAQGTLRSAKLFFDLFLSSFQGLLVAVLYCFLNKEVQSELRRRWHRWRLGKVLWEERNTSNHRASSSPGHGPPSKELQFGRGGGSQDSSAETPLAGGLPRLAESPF
Procedure, shortened: as §1

[3] = target: hGLP-1R (Homo sapiens, UniProt P43220); assay: Functional cAMP formation (HTRF) in HEK-293 clonal cells expressing hGLP-1R, 0.1% bovine casein, without or with 1.0% human serum albumin; parameters: expressed in transfected cells
Chain of hGLP-1R (P43220 24-463): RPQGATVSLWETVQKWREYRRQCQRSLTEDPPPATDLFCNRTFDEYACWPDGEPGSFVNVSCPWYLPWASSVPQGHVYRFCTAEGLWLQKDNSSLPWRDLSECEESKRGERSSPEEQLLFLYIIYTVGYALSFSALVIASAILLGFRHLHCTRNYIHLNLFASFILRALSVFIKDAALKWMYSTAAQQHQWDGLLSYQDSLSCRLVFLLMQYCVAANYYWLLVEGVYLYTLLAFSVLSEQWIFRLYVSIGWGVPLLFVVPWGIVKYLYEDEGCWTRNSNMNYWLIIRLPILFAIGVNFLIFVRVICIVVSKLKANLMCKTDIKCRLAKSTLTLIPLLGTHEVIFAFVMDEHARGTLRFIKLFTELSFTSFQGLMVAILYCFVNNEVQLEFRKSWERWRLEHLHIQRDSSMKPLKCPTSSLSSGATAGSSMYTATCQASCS
Procedure, shortened: as §1

[4] = 0.1% bovine casein and 1.0% human serum albumin, 37° C., geometric mean, read-out: hGIPR EC50, nM (SEM, n)
[5] = HEK293, percent of maximal response to GIP(1-42)NH2, 37° C., 0.1% bovine casein, arithmetic mean, read-out: hGIPR Emax, % ± SEM
[6] = 0.1% bovine casein and 1.0% human serum albumin, 37° C., geometric mean, read-out: hGCGR EC50, nM (SEM, n)
[7] = cAMP, incubated at 37° C., 0.1% bovine casein (no human serum albumin), geometric mean, read-out: hGCGR EC50, nM (SEM, n)
[8] = 0.1% bovine casein and 1.0% human serum albumin, 37° C., geometric mean, read-out: hGLP-1R EC50, nM (SEM, n)
[9] = HEK293, 0.1% bovine casein and 1.0% human serum albumin, 37° C., percent of maximal response to GLP-1(7-36)NH2, read-out: hGLP-1R Emax, % ± SEM
[10] = HEK293, 0.1% bovine casein and 1.0% human serum albumin, 37° C., percent of maximal response to GIP(1-42)NH2, read-out: hGIPR Emax, % ± SEM

Structure (SMILES)	EC50 [1, 4] [nM]	Emax [1, 5] [%]	EC50 [2, 6] [nM]	EC50 [2, 7] [nM]	EC50 [3, 8] [nM]	Emax [3, 9] [%]	EC50 ([3]; cAMP, incubated at 37° C., 0.1% bovine casein (no human serum albumin), geometric mean, read-out: hGLP-1R EC50, nM (SEM, n)) [nM]	Emax ([1]; HEK293, read-out: hGIPR Emax, % ± SEM, cAMP, 37° C., 0.1% bovine casein and 1.0% human serum albumin, percent of maximal response to GIP(1-42)NH2) [%]	EC50 ([1]; hGIPR EC50, nM (SEM, n), cAMP, 37° C., 0.1% bovine casein (no human serum albumin), geometric mean) [nM]	EC50 ([1]; hGIPR EC50, nM (SEM, n), cAMP, 37° C., 0.1% bovine casein and 1.0% human serum albumin, geometric mean (SEM, n)) [nM]	EC50 ([2]; hGCGR EC50, nM (SEM, n), cAMP, 37° C., 0.1% bovine casein (no human serum albumin), geometric mean) [nM]	EC50 ([2]; hGCGR EC50, nM (SEM, n), cAMP, 37° C., 0.1% bovine casein and 1.0% human serum albumin, geometric mean (SEM, n)) [nM]	Emax ([3]; HEK293, read-out: hGLP-1R Emax, % ± SEM, cAMP, 37° C., 0.1% bovine casein and 1.0% human serum albumin, percent of maximal response to GLP-1(7-36)NH2) [%]	Emax ([3]; HEK293, read-out: hGLP-1R Emax, % ± SEM, cAMP, 37° C., 0.1% bovine casein, percent of maximal response to GLP-1(7-36)NH2, arithmetic mean) [%]	EC50 ([3]; hGLP-1R EC50, nM (SEM, n), cAMP, 37° C., 0.1% bovine casein (no human serum albumin), geometric mean) [nM]	EC50 ([3]; hGLP-1R EC50, nM (SEM, n), cAMP, 37° C., 0.1% bovine casein and 1.0% human serum albumin, geometric mean (SEM, n)) [nM]	Emax [1, 10] [%]	EC50 ([1]; cAMP, incubated at 37° C., 0.1% bovine casein (no human serum albumin), geometric mean, read-out: hGIPR EC50, nM (SEM, n)) [nM]	Emax ([3]; HEK293, percent of maximal response to GLP-1(7-36)NH2, 37° C., 0.1% bovine casein, arithmetic mean, read-out: hGLP-1R Emax, % ± SEM) [%]
CC[C@H](C)[C@H](NC(=O)[C@H](CCCN)NC(=O)[C@H](CC(=O)O)NC(=O)[C@H](CC(C)C)NC(=O)[C@](C)(CC(C)C)NC(=O)[C@@H](NC(=O)[C@H](CO)NC(=O)[C@H](Cc1ccncc1)NC(=O)[C@H](CC(=O)O)NC(=O)[C@H](CO)NC(=O)[C@@H](NC(=O)[C@](C)(Cc1ccccc1F)NC(=O)[C@@H](NC(=O)CNC(=O)[C@H](CCC(=O)O)NC(=O)C(C)(C)NC(=O)[C@@H](N)Cc1ccc(O)cc1)[C@@H](C)O)[C@@H](C)O)[C@@H](C)CC)C(=O)N[C@@H](C)C(=O)N[C@@H](CCC(N)=O)C(=O)NC(C)(C)C(=O)N[C@@H](CCC(=O)O)C(=O)N[C@@H](Cc1ccccc1)C(=O)N[C@H](C(=O)N[C@@H](CCCCNC(=O)COCCOCCNC(=O)COCCOCCNC(=O)CC[C@H](NC(=O)CCCCCCCCCCCCC(=O)O)C(=O)O)C(=O)N[C@@](C)(Cc1ccc(O)cc1)C(=O)N[C@@H](CC(C)C)C(=O)N[C@H](C(=O)N[C@@H](CCC(=O)O)C(=O)NCC(=O)NCC(=O)N[C@@H](CCCCNC(=O)COCCOCCNC(=O)COCCOCCNC(=O)CC[C@H](NC(=O)CCCCCCCCCCCCC(=O)O)C(=O)O)C(=O)N[C@@H](CO)C(=O)N[C@@H](CO)C(=O)NCC(=O)N[C@@H](C)C(=O)N1CCC[C@H]1C(=O)N1CCC[C@H]1C(=O)N1CCC[C@H]1C(=O)N[C@@H](CO)C(N)=O)[C@@H](C)CC)[C@@H](C)CC [Example 71]	3.07	93.8 ± 3.59	> 9950	> 9950	43.7	100	0.246												
CC[C@H](C)[C@H](NC(=O)[C@H](CC(C)C)NC(=O)[C@](C)(Cc1ccc(O)cc1)NC(=O)[C@@H](CCC(=O)O)NC(=O)[C@@H](NC(=O)[C@H](Cc1ccccc1)NC(=O)[C@H](CCCCNC(=O)COCCOCCNC(=O)COCCOCCNC(=O)CC[C@H](NC(=O)CCCCCCCCCOc1ccc(C(=O)O)cc1)C(=O)O)NC(=O)C(C)(C)NC(=O)[C@H](CCC(N)=O)NC(=O)[C@H](C)NC(=O)[C@H](CCCCNC(=O)COCCOCCNC(=O)COCCOCCNC(=O)CC[C@H](NC(=O)CCCCCCCCCOc1ccc(C(=O)O)cc1)C(=O)O)NC(=O)[C@H](CCCN)NC(=O)[C@H](CC(=O)O)NC(=O)[C@H](CC(C)C)NC(=O)[C@](C)(CC(C)C)NC(=O)[C@@H](NC(=O)C(C)(C)NC(=O)[C@@H](NC(=O)[C@H](CC(=O)O)NC(=O)[C@H](CO)NC(=O)[C@@H](NC(=O)[C@](C)(Cc1ccccc1F)NC(=O)[C@@H](NC(=O)CNC(=O)[C@H](CCC(=O)O)NC(=O)C(C)(C)NC(=O)[C@@H](N)Cc1ccc(O)cc1)[C@@H](C)O)[C@@H](C)O)C(C)C)[C@@H](C)CC)[C@@H](C)CC)C(=O)N[C@@H](CCCN)C(=O)NCC(=O)NCC(=O)N1CCC[C@H]1C(=O)N[C@@H](CO)C(=O)N[C@@H](CO)C(=O)NCC(=O)N[C@@H](C)C(=O)N1CCC[C@H]1C(=O)N1CCC[C@H]1C(=O)N1CCC[C@H]1C(=O)N[C@@H](CO)C(N)=O [Example 410] (H-Y[Aib]EGT[αMePhe(2-F)]TSDV[Aib]I[αMeL]LD[Orn]K([AEEA-AEEA-γGlu-Decanoyl(10-(4-HOOC-PhO))])AQ[Aib]K([AEEA-AEEA-γGlu-Decanoyl(10-(4-HOOC-PhO))])FI[dE][αMeY]LI[Orn]GGPSSGAPPPS-NH2)								86.4	0.0118	1.28	> 9950	> 9950	93.1	94	0.251	11			
CC[C@H](C)[C@H](NC(=O)[C@H](CCCN)NC(=O)[C@H](CC(=O)O)NC(=O)[C@H](CC(C)C)NC(=O)[C@](C)(CC(C)C)NC(=O)[C@@H](NC(=O)[C@H](CO)NC(=O)[C@H](Cc1ccncc1)NC(=O)[C@H](CC(=O)O)NC(=O)[C@H](CO)NC(=O)[C@@H](NC(=O)[C@](C)(Cc1ccccc1F)NC(=O)[C@@H](NC(=O)CNC(=O)[C@H](CCC(=O)O)NC(=O)C(C)(C)NC(=O)[C@@H](N)Cc1ccc(O)cc1)[C@@H](C)O)[C@@H](C)O)[C@@H](C)CC)C(=O)N[C@@H](C)C(=O)N[C@@H](CCC(N)=O)C(=O)NC(C)(C)C(=O)N[C@@H](CCCCNC(=O)COCCOCCNC(=O)COCCOCCNC(=O)CC[C@H](NC(=O)CCCc1ccc(C(C)(C)C)cc1)C(=O)O)C(=O)N[C@@H](Cc1ccccc1)C(=O)N[C@H](C(=O)N[C@H](CCC(=O)O)C(=O)N[C@@](C)(Cc1ccc(O)cc1)C(=O)N[C@@H](CC(C)C)C(=O)N[C@H](C(=O)N[C@@H](CCC(=O)O)C(=O)NCC(=O)NCC(=O)N1CCC[C@H]1C(=O)N[C@@H](CO)C(=O)N[C@@H](CO)C(=O)NCC(=O)N[C@@H](C)C(=O)N1CCC[C@H]1C(=O)N1CCC[C@H]1C(=O)N1CCC[C@H]1C(=O)N[C@@H](CO)C(=O)N[C@@H](CCCCNC(=O)COCCOCCNC(=O)COCCOCCNC(=O)CC[C@H](NC(=O)CCCc1ccc(C(C)(C)C)cc1)C(=O)O)C(N)=O)[C@@H](C)CC)[C@@H](C)CC [Example 205]	0.261		> 9950	> 9950	2.18												72.1	0.0264	
CC[C@H](C)[C@H](NC(=O)[C@H](CC(C)C)NC(=O)[C@](C)(Cc1ccc(O)cc1)NC(=O)[C@@H](CCC(=O)O)NC(=O)[C@@H](NC(=O)[C@H](Cc1ccccc1)NC(=O)[C@H](CCC(=O)O)NC(=O)C(C)(C)NC(=O)[C@H](CCC(N)=O)NC(=O)[C@H](C)NC(=O)[C@H](CCCCNC(=O)COCCOCCNC(=O)COCCOCCNC(=O)CC[C@H](NC(=O)CCCCCCCCCCCCC(=O)O)C(=O)O)NC(=O)[C@H](CCCN)NC(=O)[C@H](CC(=O)O)NC(=O)[C@H](CC(C)C)NC(=O)[C@](C)(CC(C)C)NC(=O)[C@@H](NC(=O)C1(NC(=O)[C@H](Cc2ccncc2)NC(=O)[C@H](CC(=O)O)NC(=O)[C@H](CO)NC(=O)[C@@H](NC(=O)[C@](C)(Cc2ccccc2F)NC(=O)[C@@H](NC(=O)CNC(=O)[C@H](CCC(=O)O)NC(=O)C(C)(C)NC(=O)[C@@H](N)Cc2ccc(O)cc2)[C@@H](C)O)[C@@H](C)O)CCCC1)[C@@H](C)CC)[C@@H](C)CC)C(=O)N[C@@H](CCC(=O)O)C(=O)NCC(=O)NCC(=O)N[C@@H](CCCCNC(=O)COCCOCCNC(=O)COCCOCCNC(=O)CC[C@H](NC(=O)CCCCCCCCCCCCC(=O)O)C(=O)O)C(=O)N[C@@H](CO)C(=O)N[C@@H](CO)C(=O)NCC(=O)N[C@@H](C)C(=O)N1CCC[C@H]1C(=O)N1CCC[C@H]1C(=O)N1CCC[C@H]1C(=O)N[C@@H](CO)C(N)=O [Example 211]	2.16	91.6	> 9950	> 9950		99											64.5		93.1
